Test [1] relates to phenol oxidizing enzyme from Acremonium murorum. As to conditions: enhancer 250 μM, detergent formulation 2 g/l, pH 9, 30 min, 30° C.; for Stain bleach performance ΔE, Tomato Extract, With enzyme: enzyme 20 mg/l; for Stain bleach performance ΔE, Tomato Extract, Without enzyme: no enzyme. On the procedure:
(§1) The potential of the various enhancer to boost the bleach performance of phenol oxidizing enzyme was assessed by washing cotton swatches soiled with tomato stains. Two different bleach monitors were used:
Tomato extract material was prepared by acetone extraction of the chromophores from concentrated tomato paste. For the preparation of the stains, the colored acetone solution was applied to cotton swatches
(§2) The pH of the wash solution was set to pH 9. Purified phenol oxidizing enzyme from Acremonium murorum was added to the wash solution at 20 mg/l. […] The enhancers were all dosed at 250 μM. The wash solution was 50 mM Tris buffer.
(§3) The swatches were washed during 30 minutes, at 30° C. After the wash, the swatches were tumble-dried and the reflectance spectra were measured using a Minolta spectrometer. The color differences between the swatch before and after the wash data were expressed in the CIELAB L*a*b* color space. In this color space, L* indicates lightness and a* and b* are the chromaticity coordinates. Color differences between two swatches are expressed as ΔE, which is calculated from the following equation:
(§4) ΔE={square root over (ΔL^2[…] )}

For test [2] the test system is unchanged. From the text:
The bleaching detergent composition of the present invention comprise one or more surfactants, a phenol oxidizing enzyme and a compound which acts as enhancer for the phenol oxidizing enzyme, said composition having an Enhancer Index as herein defined of at least 12. The Enhancer Index is defined for the purpose of this invention as the ratio of the bleach effect on tomato stains to the colored monitor P10 (ΔEtomato stain/ΔEP10 colored monitor) , and is further illustrated in the Examples. […] Preferably, the Enhancer Index is at least 15, and in particular in the range of 15-50.
In order to express the potential of the various enhancers to provoke stain bleaching in the absence of dye damage, the ratio of bleach effect on the tomato stains to the colored monitor P10 was calculated (ΔEtomato stain/ΔEP10 colored monitor) . This ratio, when tomato extract is used as the stain, is referred to as the ‘Ehancer Index’.

Test [3] has the same test system. Kind of test: Bleaching of oily tomato stains on cotton swatches by phenol oxidizing enzyme/enhancer system. As to conditions: enhancer 250 μM, detergent formulation 2 g/l, pH 9, 30 min, 30° C.; for Stain bleach performance ΔE, Oily Tomato Stain, With enzyme: enzyme 20 mg/l; for Stain bleach performance ΔE, Oily Tomato Stain, Without enzyme: no enzyme. The method, then: as §1
Oily tomato stains were prepared by applying heated concentrated tomato paste, to which 5 wt % Soya oil was added, to cotton swatches.
as §2, §3, §4

For test [4] the test system is unchanged. Kind of test: Dye damage of the phenol oxidizing enzyme/enhancer system on colored swatch P10, consecutive washes in detergent formulation. As to conditions: enzyme 20 mg/l, enhancer 250 μM, 40° C., 1 hour. On the procedure: A number of colored swatches were washed to assess the degree to which the enzymatic bleach system provokes dye damage. Each swatch was subjected to 5 consecutive washes in a detergent formulation. The closed containers were agitated by putting them in a washing machine. The machine was run for 1 hour with the water heated to 40° C. The pH of the wash solution was set to pH 9. The phenol oxidizing enzyme from Acremonium murorum (see above) was added to the wash solution at 20 mg/l. The enhancers were all dosed at 250 μM.

Test [5] shares this test system. Put plainly: Dye damage of the phenol oxidizing enzyme/enhancer system on dyed swatches, 3 washes in Tris buffer. As to conditions: Tris buffer pH 8, enzyme 20 mg/l, enhancer 250 μM; for Color difference (ΔE) dyed swatch OO2 after 3 washes: Dyed Monitor OO2, 3 washes; for Color difference (ΔE) dyed swatch OO6 after 3 washes: Dyed Monitor OO6, 3 washes; for Color difference (ΔE) dyed swatch P10 after 3 washes: Dyed Monitor P10, 3 washes; for Color difference (ΔE) dyed swatch PO8 after 3 washes: Dyed Monitor PO8, 3 washes. The method, then:
A number of colored swatches were washed to assess the degree to which the enzymatic bleach system provokes dye damage. […] The closed containers were agitated by putting them in a washing machine. The machine was run for 1 hour with the water heated to 40° C. […] The phenol oxidizing enzyme from Acremonium murorum (see above) was added to the wash solution at 20 mg/l. The enhancers were all dosed at 250 μM.

Where [6] appears, read: ΔE oily tomato stain/ΔE P10, 50 mM Tris buffer solution.
Setting [7] is: ΔE oily tomato stain/ΔE P10, detergent formulation.
[8] abbreviates: ΔE tomato extract/ΔE P10, 50 mM Tris buffer solution.
[9] abbreviates: ΔE tomato extract/ΔE P10, detergent formulation.

Read-outs that look alike come from different tables or passages of the source.

`O=C(O)CCN1c2ccccc2Sc2ccccc21` [PTP, Phenothiazine-10-propionate]: in test [1], the “Stain bleach performance ΔE, Tomato Extract, With enzyme” value stood at 33.66 and the “Stain bleach performance ΔE, Tomato Extract, Without enzyme” value came out at 12.00. Further, the “Ratio Bleach on Stain Monitor/Dye Damage, Oily Tomato Stain” value in test [2] (setting [6]) was determined as 0.69. In test [2] (setting [7]), the “Ratio Bleach on Stain Monitor/Dye Damage, Oily Tomato Stain” value is on record as 2.89. The “Ratio Bleach on Stain Monitor/Dye Damage, Tomato Extract (Enhancer Index)” value in test [2] (setting [8]) is recorded as 3.59. In addition, the “Ratio Bleach on Stain Monitor/Dye Damage, Tomato Extract (Enhancer Index)” value in test [2] (setting [9]) amounted to 10.35. Also, in test [3], the “Stain bleach performance ΔE, Oily Tomato Stain, With enzyme” value was 9.41 and the “Stain bleach performance ΔE, Oily Tomato Stain, Without enzyme” value stood at 8.54. In test [4], the “Color difference (ΔE) original P10 swatch vs after 1st wash” value is reported as 0.51, the “Color difference (ΔE) original P10 swatch vs after 2nd wash” value is on record as 0.78, the “Color difference (ΔE) original P10 swatch vs after 3rd wash” value turned out to be 1.79 and the “Color difference (ΔE) original P10 swatch vs after 4th wash” value amounted to 2.63. Moreover, in test [4], the “Color difference (ΔE) original P10 swatch vs after 5th wash” value is 3.25. Moreover, in test [5], the “Color difference (ΔE) dyed swatch OO2 after 3 washes” value was determined as 6.34, the “Color difference (ΔE) dyed swatch OO6 after 3 washes” value was determined as 15.64, the “Color difference (ΔE) dyed swatch P10 after 3 washes” value is listed as 9.66 and the “Color difference (ΔE) dyed swatch PO8 after 3 washes” value was 12.57.

With `O=S(=O)(Nc1cc(Br)c(O)c(Br)c1Br)c1ccccc1` [Enhancer 3BrphenolBSA, N-(2,3,5-tribromo-4-hydroxyphenyl)-Benzenesulfonamide], in test [1], the “Stain bleach performance ΔE, Tomato Extract, With enzyme” value was determined as 26.87 and the “Stain bleach performance ΔE, Tomato Extract, Without enzyme” value came out at 12.99. For the same molecule, in test [2] (setting [6]), the “Ratio Bleach on Stain Monitor/Dye Damage, Oily Tomato Stain” value amounted to 5.62. Besides, in test [2] (setting [7]), the “Ratio Bleach on Stain Monitor/Dye Damage, Oily Tomato Stain” value was 6.18. Besides, the “Ratio Bleach on Stain Monitor/Dye Damage, Tomato Extract (Enhancer Index)” value in test [2] (setting [8]) was 19.97. For the same molecule, the “Ratio Bleach on Stain Monitor/Dye Damage, Tomato Extract (Enhancer Index)” value in test [2] (setting [9]) is recorded as 15.18. In test [3], the “Stain bleach performance ΔE, Oily Tomato Stain, With enzyme” value came out at 10.95 and the “Stain bleach performance ΔE, Oily Tomato Stain, Without enzyme” value came out at 6.89. Also, in test [4], the “Color difference (ΔE) original P10 swatch vs after 1st wash” value is 1.69, the “Color difference (ΔE) original P10 swatch vs after 2nd wash” value was 1.17, the “Color difference (ΔE) original P10 swatch vs after 3rd wash” value is given as 1.20 and the “Color difference (ΔE) original P10 swatch vs after 4th wash” value is reported as 1.55. Moreover, the “Color difference (ΔE) original P10 swatch vs after 5th wash” value in test [4] turned out to be 1.77. Besides, in test [5], the “Color difference (ΔE) dyed swatch OO2 after 3 washes” value is recorded as 0.47, the “Color difference (ΔE) dyed swatch OO6 after 3 washes” value is on record as 4.45, the “Color difference (ΔE) dyed swatch P10 after 3 washes” value was found to be 1.00 and the “Color difference (ΔE) dyed swatch PO8 after 3 washes” value worked out at 1.45.

For `CCn1c(=NN=c2sc3cc(S(=O)(=O)O)ccc3n2CC)sc2cc(S(=O)(=O)O)ccc21` [ABTS], in test [1], the “Stain bleach performance ΔE, Tomato Extract, With enzyme” value came out at 37.56 and the “Stain bleach performance ΔE, Tomato Extract, Without enzyme” value worked out at 11.12. Also, the “Ratio Bleach on Stain Monitor/Dye Damage, Oily Tomato Stain” value in test [2] (setting [6]) came to 2.66. For the same molecule, the “Ratio Bleach on Stain Monitor/Dye Damage, Oily Tomato Stain” value in test [2] (setting [7]) is reported as 4.22. The “Ratio Bleach on Stain Monitor/Dye Damage, Tomato Extract (Enhancer Index)” value in test [2] (setting [8]) is listed as 2.93. Further, the “Ratio Bleach on Stain Monitor/Dye Damage, Tomato Extract (Enhancer Index)” value in test [2] (setting [9]) is 5.76. Moreover, in test [3], the “Stain bleach performance ΔE, Oily Tomato Stain, With enzyme” value came to 27.53 and the “Stain bleach performance ΔE, Oily Tomato Stain, Without enzyme” value is 8.67. In test [4], the “Color difference (ΔE) original P10 swatch vs after 1st wash” value amounted to 1.61, the “Color difference (ΔE) original P10 swatch vs after 2nd wash” value was found to be 1.51, the “Color difference (ΔE) original P10 swatch vs after 3rd wash” value stood at 3.29 and the “Color difference (ΔE) original P10 swatch vs after 4th wash” value is 4.99. In addition, in test [4], the “Color difference (ΔE) original P10 swatch vs after 5th wash” value is listed as 6.52. In test [5], the “Color difference (ΔE) dyed swatch OO2 after 3 washes” value was 3.47, the “Color difference (ΔE) dyed swatch OO6 after 3 washes” value is reported as 19.70, the “Color difference (ΔE) dyed swatch P10 after 3 washes” value is on record as 12.18 and the “Color difference (ΔE) dyed swatch PO8 after 3 washes” value is 24.02.

As to `Cc1ccc(S(=O)(=O)Nc2cc(Br)c(O)c(Br)c2Br)cc1` [3Brphenol3MeBSA, N-(2,3,5-tribromo-4-hydroxyphenyl)-4-Methyl Benzenesulfonamide], in test [1], the “Stain bleach performance ΔE, Tomato Extract, With enzyme” value came to 27.57 and the “Stain bleach performance ΔE, Tomato Extract, Without enzyme” value is listed as 12.86. Moreover, the “Ratio Bleach on Stain Monitor/Dye Damage, Oily Tomato Stain” value in test [2] (setting [6]) is recorded as 6.46. In addition, the “Ratio Bleach on Stain Monitor/Dye Damage, Oily Tomato Stain” value in test [2] (setting [7]) is given as 6.29. Besides, in test [2] (setting [8]), the “Ratio Bleach on Stain Monitor/Dye Damage, Tomato Extract (Enhancer Index)” value turned out to be 20.40. In addition, the “Ratio Bleach on Stain Monitor/Dye Damage, Tomato Extract (Enhancer Index)” value in test [2] (setting [9]) is on record as 14.82. For the same molecule, in test [3], the “Stain bleach performance ΔE, Oily Tomato Stain, With enzyme” value is on record as 11.71 and the “Stain bleach performance ΔE, Oily Tomato Stain, Without enzyme” value is listed as 6.87. Further, in test [4], the “Color difference (ΔE) original P10 swatch vs after 1st wash” value is recorded as 0.93, the “Color difference (ΔE) original P10 swatch vs after 2nd wash” value was found to be 0.98, the “Color difference (ΔE) original P10 swatch vs after 3rd wash” value amounted to 1.10 and the “Color difference (ΔE) original P10 swatch vs after 4th wash” value is on record as 1.62. The “Color difference (ΔE) original P10 swatch vs after 5th wash” value in test [4] came to 1.86. Besides, in test [5], the “Color difference (ΔE) dyed swatch OO2 after 3 washes” value amounted to 0.41, the “Color difference (ΔE) dyed swatch OO6 after 3 washes” value is given as 4.59, the “Color difference (ΔE) dyed swatch P10 after 3 washes” value is reported as 0.96 and the “Color difference (ΔE) dyed swatch PO8 after 3 washes” value amounted to 1.52.

Values taken from patent publication US6380146B1, “Bleaching detergent compositions” (priority 1999, dated 2002).
